Results taken from the METLIN SMRT retention time set (Domingo-Almenara et al. 2019).

Test: gradient 5% acetonitrile 3 min, to 50% in 2 min, to 85% in 15 min, held 3 min, 100 µL/min
Conditions: column: Zorbax Extend-C18 2.1 x 50 mm; eluents: water / acetonitrile, 0.1% formic acid
Method in brief: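 The system's dead and dwell volumes were 40 μL and 900 μL, with a Zorbax Extend-C18 column (2.1 × 50 mm, 1.8 μm) run at 100 μL/min in water and acetonitrile containing 0.1% formic acid each. Pure standards were analyzed in mixtures of ~100 molecules by HPLC–quadrupole time-of-flight mass spectrometry in positive and negative ionization mode. Retention time was assigned from computationally picked, manually inspected adduct peaks.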

Work on `Cc1ccc(NC(=O)N2CCC3(CC2)N=C(c2ccccc2)C(=O)N3)cc1C` yielded an RP-LC retention time of 824 s.

In the case of `O=C(Cn1cnc2nc(N3CCCC(C(=O)NC4CC4)C3)sc2c1=O)Nc1ccc(Cl)cc1` (stereo not drawn), the RP-LC retention time is reported as 721 s.

`CC1CCCN(c2nn(CC(=O)Nc3ccc(C(F)(F)F)cc3)c(=O)c3ccccc23)C1` (stereo not drawn) gave an RP-LC retention time of 1170 s.

`O=C(Nc1ccc(F)cc1)C1CCN(S(=O)(=O)c2cc(C(=O)N3CCCCCC3)cs2)CC1` gave an RP-LC retention time of 920 s.

Work on `COc1cc(-c2nnc(/C=C/c3ccccc3)o2)cc(OC)c1OC` yielded an RP-LC retention time of 904 s.

`CCNc1cc(N2CCC(CCC(=O)NCc3ccc(C)cc3)CC2)ncn1` showed an RP-LC retention time of 676 s.

Compound `CSc1ccccc1C(=O)Nc1ccc2cn[nH]c2c1` has an RP-LC retention time of 673 s.

With `CCC(CC)NC(=O)c1c(OCC2CC2)cc(=O)n2c1CCCCC2` the RP-LC retention time was 754 s.

`Cc1nc(C2(C)CCN(S(=O)(=O)c3ccc(C(C)(C)C)cc3)CC2)no1` showed an RP-LC retention time of 1080 s.

For `COc1ccc(C(=O)N2CC(n3cc(COCC4CC4)nn3)C2)cc1`, the RP-LC retention time was 712 s.

Compound `O=C(NC1CCCCCC1)C1CCCN(c2nccnc2Oc2ccccc2)C1` (stereo not drawn) has an RP-LC retention time of 1060 s.

With `O=C(NCc1csc(C2CCN(C(=O)c3ccc(Cl)cc3)CC2)n1)C1CC1` the RP-LC retention time was 725 s.

For `O=C(c1ccc(-n2c(-c3ccccc3)nc3cccnc32)cc1)N1CCN(c2ccccn2)CC1`, the RP-LC retention time was 613 s.

`Cc1cc(C)n(-c2ccnc(N3CCC(C(=O)N4CCCC4)CC3)n2)n1` showed an RP-LC retention time of 739 s.

For `FC(F)(F)c1cnc(N2CCN(c3ccccc3)CC2)c(Cl)c1`, the RP-LC retention time was 1390 s.

Compound `Cc1cc(-c2nnc(C3CCC3)o2)c(C)n1CC(=O)NCc1cccc(C(F)(F)F)c1` has an RP-LC retention time of 937 s.

Compound `O=C(C1=CN(c2ccc3c(c2)OCCO3)c2ccccc2S1(=O)=O)N1CCOCC1` has an RP-LC retention time of 730 s.

`CC1=C(c2ccccc2)S(=O)(=O)N=C1N1CCCN(C(=O)NC2CCCC2)CC1` gave an RP-LC retention time of 778 s.

In the case of `CN(C)c1nn(CC(=O)Nc2ccc(Br)cc2)c(=O)c2ccccc12`, the RP-LC retention time is reported as 932 s.

For `Cc1ccc2c(c1)N(S(C)(=O)=O)CCC(C(=O)Nc1ccccc1Br)O2` (stereo not drawn), the RP-LC retention time was 1040 s.

For `Cc1ccc(NC(=O)C2CCN(S(=O)(=O)c3ccc4c(c3)sc(=O)n4C(C)C)CC2)cc1F`, the RP-LC retention time was 1050 s.

`O=C(NC1CCCC1)C1CCCN(c2ccc(=O)n(-c3cccc(F)c3)n2)C1` (stereo not drawn) gave an RP-LC retention time of 784 s.

Work on `O=C(c1ccccc1[N+](=O)[O-])N1CCN(Cc2nc(-c3ccco3)cs2)CC1` yielded an RP-LC retention time of 682 s.

Work on `COc1ccc(Br)cc1Cn1nnc(C(=O)NCc2cccs2)c1N` yielded an RP-LC retention time of 825 s.

With `CCOC(=O)C1CCN(c2nc(=O)n(CC(=O)Nc3ccc(C)cc3)c3ccccc23)CC1` the RP-LC retention time was 843 s.

With `Cn1c(=O)c2c(-c3ccc(F)cc3)c(C#N)c(N)nc2n(C)c1=O` the RP-LC retention time was 757 s.

`Cc1cnc(C(=O)N2CCC(N3CC(OCC4CC4)C34CCOCC4)CC2)cn1` (stereo not drawn) gave an RP-LC retention time of 586 s.

For `O=C(CN1C(=O)CCS(=O)(=O)c2ccccc21)Nc1cccc(C(F)(F)F)c1`, the RP-LC retention time was 849 s.

`O=C1CCN(C(=O)COc2ccc(Cl)cc2Cl)c2ccccc2N1` gave an RP-LC retention time of 792 s.

Work on `CCc1ccc(N2CC(c3noc(-c4cc(OC)c(OC)c(OC)c4)n3)CC2=O)cc1` (stereo not drawn) yielded an RP-LC retention time of 927 s.

Work on `COc1cccc2c1OC1(C)CC2C(S(=O)(=O)c2ccc(C(C)C)cc2)C(=O)N1` (stereo not drawn) yielded an RP-LC retention time of 938 s.

`CN(C)c1ccc(-c2nc3cnccn3c2Nc2cccc(C(=O)O)c2)cc1` gave an RP-LC retention time of 655 s.

`CC1CCCN(S(=O)(=O)c2ccc(-c3nnc(C4CCCC4)o3)o2)C1` (stereo not drawn) showed an RP-LC retention time of 1080 s.

Compound `CCc1ccc(NC(=O)Cn2c(=O)n(-c3ccc(F)cc3)c(=O)c3c2cc(C)n3C)cc1` has an RP-LC retention time of 888 s.

Work on `Cc1ccccc1-c1nc(C2CC(=O)N(c3ccc(Cl)cc3)C2)no1` (stereo not drawn) yielded an RP-LC retention time of 1090 s.

Compound `CCc1ccc(C2=C(C)C(N3CCCN(C(=O)C4CCCO4)CC3)=NS2(=O)=O)cc1` (stereo not drawn) has an RP-LC retention time of 778 s.

`CCC(C)C(NC(=O)c1ccc(Cl)cc1)C(=O)Nc1nc2ccccc2[nH]1` (stereo not drawn) showed an RP-LC retention time of 793 s.

With `CC(C)c1noc(-c2cc(=O)n(CC(=O)NCc3cccs3)c3ccccc23)n1` the RP-LC retention time was 933 s.

In the case of `CCCCNC(=O)Cc1csc(-n2nc(C)c(Cl)c2C)n1`, the RP-LC retention time is reported as 763 s.

Work on `CN(CC1CCOC1)S(=O)(=O)Cc1cccc(Cl)c1` (stereo not drawn) yielded an RP-LC retention time of 804 s.

Work on `COc1cc(OC)c(NC(=O)N(C)CCc2noc(COc3ccccc3)n2)cc1Cl` yielded an RP-LC retention time of 957 s.

`CCc1nc2cc(N3CCC(C(=O)NC(C)c4cccnc4)CC3)cnc2nc1CC` (stereo not drawn) showed an RP-LC retention time of 596 s.

In the case of `O=C1Nc2cc(C(=O)N3CCN(c4ccc(Cl)cc4)CC3)ccc2N2CCCCC12` (stereo not drawn), the RP-LC retention time is reported as 638 s.

For `COCCN1C(=O)c2cc(-c3ccccc3)nn2CC1(C)C(=O)NCc1ccccc1` (stereo not drawn), the RP-LC retention time was 842 s.

Compound `Cn1nnnc1SCC(=O)NCCCC(=O)Nc1cccc2cccnc12` has an RP-LC retention time of 620 s.

For `CC(C)CN1CCN(S(=O)(=O)c2cc(-c3nnc(C4CCCC4)o3)co2)CC1`, the RP-LC retention time was 678 s.

With `CC(C)Cn1c(=O)c2cc(C(=O)NCc3ccncc3)nn2c2ccccc21` the RP-LC retention time was 657 s.

With `O=C(C1CCN(S(=O)(=O)N2CCOCC2)CC1)N1CCN(Cc2noc3ccccc23)CC1` the RP-LC retention time was 645 s.

`CSc1ccccc1NC(=O)C(=O)NCC(c1ccc2c(c1)CCCN2C)N1CCCC1` (stereo not drawn) gave an RP-LC retention time of 784 s.

`Cc1nn(-c2ccc(F)cc2)c(C)c1S(=O)(=O)N1CCC(C(=O)NCC2CCCO2)CC1` (stereo not drawn) showed an RP-LC retention time of 742 s.

`CCS(=O)(=O)N1CC(=O)N(c2ccc(F)cc2C)C(C)(C(=O)NC2CCCCCCC2)C1` (stereo not drawn) showed an RP-LC retention time of 997 s.

For `COc1cccc(-c2noc(Cc3nnc(-c4ccc(C)c(F)c4)o3)n2)c1OC`, the RP-LC retention time was 1010 s.

Compound `Cc1cc(N2CCN(C(=O)c3cccc(C(F)(F)F)c3)CC2)nc2nnc(C)n12` has an RP-LC retention time of 649 s.

In the case of `O=C(C1=CN(c2ccc(F)c(F)c2)c2ccccc2S1(=O)=O)N1CCOCC1`, the RP-LC retention time is reported as 751 s.

Work on `COC(=O)c1cc(N2CCN(C)CC2)nc2c(C)cccc12` yielded an RP-LC retention time of 670 s.

`Cc1nc(C2CN(S(=O)(=O)c3c(C)c(C)cc(C)c3C)CC23CCOCC3)no1` (stereo not drawn) gave an RP-LC retention time of 1020 s.

For `Cn1nc(C(=O)N2CCCCC2)c2c1CCN(C(=O)CCC(=O)N1CCCC1)C2`, the RP-LC retention time was 622 s.

In the case of `CCOC(=O)c1c(C)[nH]c(C(=O)N2CCCC(C(=O)NCc3ccccc3OC)C2)c1C` (stereo not drawn), the RP-LC retention time is reported as 785 s.

In the case of `O=C(Nc1cnccn1)c1ccc(S(=O)(=O)N2CCCCCC2)cc1`, the RP-LC retention time is reported as 766 s.

In the case of `CCN1CCCC1CNC(=O)Cn1nc(C)n2nc(-c3ccccc3)cc2c1=O` (stereo not drawn), the RP-LC retention time is reported as 635 s.

`COc1cc(F)ccc1-c1ccnc2nc(CC(C)C)nn12` showed an RP-LC retention time of 862 s.

With `O=C(Cn1ccc2ccc(N3CCOCC3)nc21)NCc1ccc(F)c(Cl)c1` the RP-LC retention time was 920 s.

In the case of `O=C(Nc1ccc(F)cc1)Nc1ccc2nc3n(c(=O)c2c1)CCC3`, the RP-LC retention time is reported as 688 s.

With `Cn1nccc1-c1csc(S(=O)(=O)NC2CCCC2)c1` the RP-LC retention time was 806 s.

For `COc1ccc(NC(=O)c2nc(N3CCC(C)CC3)c3cnn(C)c3n2)cc1`, the RP-LC retention time was 966 s.

Work on `Cc1ccc(NC(=O)C2CCN(S(=O)(=O)c3cc(C(=O)N(C)C)cs3)CC2)c(C)c1` yielded an RP-LC retention time of 804 s.

`COc1cc(OC)c(NC(=O)Cn2cc3c(n2)CCC(C)C3)cc1Cl` (stereo not drawn) gave an RP-LC retention time of 999 s.

Work on `CCn1c(=O)n(CC)c2cc(S(=O)(=O)C3CCCCC3)c(NC(C)=O)cc21` yielded an RP-LC retention time of 791 s.

Compound `COC(=O)C1=CN(c2ccc(C)c(F)c2)c2cc(F)ccc2S1(=O)=O` has an RP-LC retention time of 920 s.

With `COc1ccc(OC)c(NC(=O)N2CCc3cn(C)c4cccc(c34)C2)c1` the RP-LC retention time was 943 s.

In the case of `CN(C)C(=O)c1ccc(-n2nc(C(F)(F)F)c3c2CCCC3)cc1`, the RP-LC retention time is reported as 882 s.

Compound `CCC(C)NC(=O)c1c(O)c2cccnc2n(-c2ccc(OC)cc2)c1=O` (stereo not drawn) has an RP-LC retention time of 1140 s.

For `Oc1cccc(-c2nc3cnc(Br)cn3c2Nc2cccc(C(F)(F)F)c2)c1`, the RP-LC retention time was 902 s.

For `CC1(C)CC(=O)C2=C(C1)N(CC1CCCO1)C(=O)C2(NC(=O)c1ccc(Cl)cc1)C(F)(F)F` (stereo not drawn), the RP-LC retention time was 975 s.

`Nc1cc(C2CCN(C(=O)Nc3ccccc3Cl)CC2)no1` showed an RP-LC retention time of 698 s.

For `O=C(CN1C(=O)NC2(CCCCC2)C1=O)NCc1cccc(Br)c1`, the RP-LC retention time was 772 s.

Work on `COc1nccnc1NC1CCN(C(=O)c2ccco2)CC1` yielded an RP-LC retention time of 690 s.

`Cc1[nH]c(C)c(S(=O)(=O)N2CCC(C(=O)NC3CCC(C)CC3)CC2)c1C(=O)N1CCCCC1` (stereo not drawn) gave an RP-LC retention time of 778 s.

`CCC(=O)N(C1CCOCC1)C1CCN(S(=O)(=O)c2cccc(Cl)c2)CC1` showed an RP-LC retention time of 872 s.

With `Cc1ccc(C)c(C(=O)Nc2cnn(-c3ncc(N(C)C)cn3)c2)c1` the RP-LC retention time was 788 s.

Compound `Cc1cc2[nH]c(C(=O)Nc3cc(F)c(F)c(F)c3)c(CN(C)C)c2s1` has an RP-LC retention time of 743 s.

For `CCc1nnc2ccc(-c3noc(-c4cccc(F)c4)n3)cn12`, the RP-LC retention time was 936 s.

In the case of `Cc1cc(C)n(-c2ccnc(N3CCC(C(=O)NCC4CCCO4)CC3)n2)n1` (stereo not drawn), the RP-LC retention time is reported as 674 s.

Compound `CCOC(=O)CNC(=O)N1CC(n2cc(COc3ccc(F)cc3)nn2)C1` has an RP-LC retention time of 692 s.

For `COc1ccc(-c2noc(-c3ccc(NCc4ccc(C)o4)nc3)n2)cc1`, the RP-LC retention time was 1150 s.

`CC1CCN(C(=O)c2ccc(Cn3cncn3)cc2)CC1` gave an RP-LC retention time of 672 s.

`CCCNC(=O)c1ccc2ncnc(N3CCCC3)c2c1` gave an RP-LC retention time of 576 s.

`CC1(C(=O)NC2CCCCCC2)CN(S(C)(=O)=O)CC(=O)N1c1cccc(F)c1` (stereo not drawn) gave an RP-LC retention time of 835 s.
